Where a name gives a salt, the structure may show the parent alone.
Columns and labels:
MRL-lpr/lpr mice = experiment: Repeated intramuscular administration for 28 days in MRL mice (submandibular lymph node weight); format: in vivo
Experimental: The effect of the keratan sulfate oligosaccharide was examined on MRL mice which are autoimmune disease model mice.
The PBS solution of the purified keratan sulfate disaccharide (III) which was prepared in Example 1 described above at a dose of 1 mg/kg, 5 mg/kg, or 25 mg/kg weight (hereinafter referred to as the 1 mg/kg administered group, the 5 mg/kg administered group, and the 25 mg/kg administered group, respectively), and PBS as the control (hereinafter sometimes referred to as the control group) was intramuscularly injected, respectively, to the femoral region of MRL-lpr/lpr mice seven times a week for four weeks. After that, the mice were subjected to anatomization, and the weight of submandibular lymph nodes was determined to obtain the average weight. In each group, six mice were used. Further, in the figure, * represents that it has the significant difference with p<0.05 (wherein "p" means a level of significance by the Bonferroni multiple comparative test).

papain-induced arthritis = experiment: Papain-induced bilateral arthritis model, intramuscular administration (volume of synovial fluid); format: in vivo, Japanese white rabbits (female); conditions: 0.5 mg/kg intramuscular
Experimental: The anti-inflammatory effect of the keratan sulfate oligosaccharide with rabbits of the papain-induced arthritis model was examined using the volume of synovial fluid as an indication.
Into the articular cavity of both knee joint of Japanese white rabbits (female) of 3 kg weight, 150 μl of the saline solution of papain (1%) was injected to prepare the arthritis model. […]
Seven days after the injection, the blood was drawn from the auricular artery, and plasma containing heparin was separated. […] The calcium concentrations in the plasma and the recovered synovial fluid were determined, and the volume of synovial fluid was calculated from the following formula. […]
The arthritis model was prepared by the method described in (1-1), and one day after injecting papain, 150 μl of the PBS solution of the purified keratan sulfate tetrasaccharide (I) (1% solution; 0.5 mg/kg weight) which was prepared in Example 1 was injected into the hip muscle of the left side (hereinafter referred to as "the keratan sulfate tetrasaccharide (I) administered group"). […] Seven days after the injection, the volume of synovial fluid was calculated in the same manner as in (1-1).

Row | SMILES | weight increase in submandibular lymph nodes (FIG. 14) (MRL-lpr/lpr mice; 5 mg/kg i.m., p<0.05) | weight increase in submandibular lymph nodes (FIG. 14) (MRL-lpr/lpr mice; any dose (1, 5, 25 mg/kg i.m.)) | volume of synovial fluid (result in words) (papain-induced arthritis; bilateral model) | Volume of Synovial Fluid (papain-induced arthritis; 7 days, n = 12, SD 65.8, p < 0.01, control 729, normal 437) [µL]
1 | CC(=O)N[C@H]1C(O)O[C@H](COS(=O)(=O)O)[C@@H](O[C@@H]2O[C@H](COS(=O)(=O)O)[C@H](O)[C@H](O)[C@H]2O)[C@@H]1O (stereo partly drawn) [keratan sulfate disaccharide (III), Gal(6S)β1-4GlcNAc(6S)] | a significant suppressive effect on the weight increase was observed compared with the control group | a suppressive effect on the weight increase in submandibular lymph nodes was observed | – | –
2 | CC(=O)N[C@H]1[C@H](O[C@H]2[C@@H](O)[C@@H](COS(=O)(=O)O)O[C@@H](O[C@H]3[C@H](O)[C@@H](NC(C)=O)C(O)O[C@@H]3COS(=O)(=O)O)[C@@H]2O)O[C@H](COS(=O)(=O)O)[C@@H](O[C@@H]2O[C@H](COS(=O)(=O)O)[C@H](O)[C@H](O)[C@H]2O)[C@@H]1O (stereo partly drawn) [keratan sulfate tetrasaccharide (I), Gal(6S)β1-4GlcNAc(6S)β1-3Gal(6S)β1-4GlcNAc(6S)] | – | – | significantly less than that in the control group | 561

From patent US5939403A, “Keratan sulfate oligosaccharide fraction and pharmaceutical containing the same” (Seikagaku Corporation, priority 1994, dated 1999)
